Reference: US6172056A, “Pharmaceutical compositions and method for prophylaxis and therapy of radical-mediated cell damage” (Jenapharm GmbH & Co. KG, priority 1993, dated 2001)
pIC50: −log10 of the molar value.

Key:
[1] = tested on: lipid peroxidation (synaptosomal membrane fraction, Fenton's reagent); test: In vitro inhibition of lipid peroxidation, thiobarbituric acid test; assay type: biochemical; conditions: 30 min at 37° C.
peroxidation = conditions: literature statement; cited from earlier work
[2] = tested on: LDL, isolated from human whole blood; test: In vitro inhibition of LDL oxidation (Esterbauer et al), CuSO4-induced; conditions: 5 μmol test compound, 10 μmol CuSO4
estrogen receptor = target: T1, estrogen receptor (Oryctolagus cuniculus, UniProt G1SML6); test: Estrogen receptor binding, competitive with 3H-ethinyl estradiol in uterine cytosol; conditions: RBA relative to 17β-estradiol, infantile rabbit uterine cytosol, 0° C.
T1 construct: in uterine cytosol of the infantile rabbit; from tissue; host or cells: uterine cytosol of infantile rabbit
T1 sequence (G1SML6 1-598): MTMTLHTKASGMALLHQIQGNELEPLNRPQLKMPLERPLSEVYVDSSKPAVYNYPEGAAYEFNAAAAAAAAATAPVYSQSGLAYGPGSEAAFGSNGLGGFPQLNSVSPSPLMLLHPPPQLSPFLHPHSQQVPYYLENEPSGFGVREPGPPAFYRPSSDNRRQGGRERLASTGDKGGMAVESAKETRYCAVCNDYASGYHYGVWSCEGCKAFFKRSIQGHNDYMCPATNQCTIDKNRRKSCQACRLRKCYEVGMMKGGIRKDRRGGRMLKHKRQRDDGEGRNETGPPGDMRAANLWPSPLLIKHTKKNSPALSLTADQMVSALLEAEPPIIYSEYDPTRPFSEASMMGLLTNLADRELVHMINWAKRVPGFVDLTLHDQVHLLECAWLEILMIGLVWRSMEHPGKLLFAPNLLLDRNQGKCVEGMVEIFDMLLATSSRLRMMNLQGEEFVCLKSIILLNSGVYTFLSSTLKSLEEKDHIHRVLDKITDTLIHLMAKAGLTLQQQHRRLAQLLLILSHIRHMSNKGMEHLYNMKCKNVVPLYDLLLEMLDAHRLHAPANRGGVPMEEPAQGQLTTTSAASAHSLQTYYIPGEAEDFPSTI
Description: Statements about estrogen affinity are made by measuring the estrogen receptor binding.
Measuring the estrogen receptor binding is done by competitive binding of the ^3 H-labelled synthetic estrogen ethinyl estradiol and of the compounds to be tested in uterine cytosol of the infantile rabbit at 0° C. Reaction equilibrium and receptor saturation are the goal.
With the statement about the RBA values, the estrogen receptor affinity of the particular compound is characterized; taking into account certain prerequisites for in vitro investigations (such as a free 30H group), it is a measure for estrogen affinity (again, see Table 1).

Compound | pIC50 [1] | Inhibition of peroxidation in vitro and in vivo (peroxidation) | LDL oxidation inhibition (prolongation of the lag phase in min) [2] | Relative binding affinity to estrogen receptor (estrogen receptor)
COc1cc2c(cc1O)[C@H]1CC[C@]3(C)[C@@H](O)CC[C@H]3[C@@H]1CC2 [2-Hydroxyestradiol-3-methyl ether] | 5.49 |  |  | 
C[C@]12CC[C@@H]3c4cc(O)c(O)cc4CC[C@H]3[C@@H]1CC[C@@H]2O [2-hydroxyestradiol] |  | inhibit peroxidation in vitro and in vivo |  | 
C[C@]12CC=C3c4ccc(O)cc4CC[C@H]3[C@@H]1CC[C@@]21CO1 [3-Hydroxy-1,3,5(10),9(11)-estratetraene-17S-spirooxirane] | 6.09 |  | 210 min | 
C[C@]12CC[C@@H]3c4ccc(O)cc4CC[C@H]3[C@@H]1CC[C@@]21CO1 [3-Hydroxy-1,3,5(10)-estratriene-17S-spirooxirane] | 5.39 |  | 170 min | 
C[C@]12CCc3c(ccc4cc(O)ccc34)[C@@H]1CC[C@H]2O [6,8-Didehydro-17α-estradiol] | 5.29 |  |  | 
C[C@]12CC[C@@H]3c4ccc(O)cc4C=C[C@H]3[C@@H]1C[C@@H](O)[C@@H]2O [6-Dehydroestriol] | 4.34 |  |  | 7.9%
C[C@]12CCC3=C(CCc4cc(O)ccc43)[C@@H]1CC[C@H]2O [8-Dehydro-17α-estradiol] | 5.39 |  |  | 
C[C@]12CCC3=C(CCc4cc(O)ccc43)[C@@H]1CC[C@@H]2O [8-Dehydroestradiol] | 6.00 |  | 120 min | 59.6%
C[C@]12CC=C3c4ccc(O)cc4CC[C@H]3[C@@H]1C[C@@H](O)[C@@H]2O [9(11)-dehydroestriol] | 4.97 |  |  | 7.5%
C[C@]12CC[C@@H]3c4ccc(O)cc4CC[C@H]3[C@@]13C[C@H]3C[C@@H]2O [14α,15α-Methylene estradiol] | 5.00 to 5.30 |  |  | 
C[C@]12CCC3=C(CCc4cc(O)ccc43)[C@@]13C[C@H]3C[C@@H]2O [14α,15α-Methylene-8-dehydroestradiol] | 6.05 |  |  | 
C[C@]12CCC3=C(CCc4cc(O)ccc43)[C@]13C[C@@H]3C[C@@H]2O [14β,15β-Methylene-8 dehydroestradiol, 14β,15β-methylene-8-dehydroestradiol] | 5.72 |  |  | 
C[C@]12CC[C@@H]3c4ccc(O)cc4CC[C@H]3[C@@H]1CC[C@H]2O [17α-Estradiol] | 5.05 |  |  | 
C[C@]12CC[C@@H]3c4ccc(O)cc4CC[C@H]3[C@@H]1CC[C@@H]2O [17β-Estradiol, reference compound] | 4.91 | inhibit peroxidation in vitro and in vivo | 110 min | 
CC(CO)[C@H]1CC[C@H]2[C@@H]3CCc4cc(O)ccc4[C@H]3CC[C@]12C (stereo partly shown) [20-hydroxymethyl-3-hydroxy-19-norpregna-1,3,5(10)-triene] | 4.84 |  |  | 22.5%
Cc1c(C)c2c(c(C)c1O)CCC(C)(CN1CCN(c3cc(N4CCCC4)nc(N4CCCC4)n3)CC1)O2 (stereo not shown) [Compound U-78517F, reference compound] | 5.74 |  | 70 min | 
C[C@]12CC[C@@H]3c4ccc(O)cc4CC[C@H]3[C@@H]1C[C@@H](O)[C@@H]2O [Estriol, reference compound] | 3.91 | inhibit peroxidation in vitro and in vivo | 45 min | 10.3%
C[C@@]12CC[C@H]3c4ccc(O)cc4CC[C@@H]3[C@H]1CC[C@H]2O [ent-Estradiol] | 5.06 |  | 120 min | 
C[C@]12CC[C@@H]3c4ccc(O)cc4CC[C@H]3[C@@H]1CCC2=O [estrone] |  | inhibit peroxidation in vitro and in vivo |  | 
Vitamin E [reference compound] | 3.88 |  |  | 
